The source of these data is PubChem BioAssay AID2060327 (Molecular Pharmacology Branch, DTP, NCI, 2025).

Usually pIC50 stands for the negative decadic logarithm of the IC50, by convention in mol/L. One may read the viability, T/C as the result in the treated group divided by that in the control group, in per cent.

The subject of this test is PC-3 multi-cell spheroids, viability. The test is described as follows: Anticancer human tumor PC-3 cell line growth inhibition [IpAb].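 On all read-outs here: spheroids exposed to compounds for 7 days before readout.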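 On viability, T/C: 100% = DMSO vehicle control wells.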 The settings on record: for viability, T/C: stronger effect = lower value. Put shortly: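 Multi-cell spheroids of 60% tumour cells, 25% HUVEC and 15% MSC in ultra-low-attachment U-bottom wells, treated with agents combined with ipatasertib or abemaciclib. Half-log ranges top out near clinical Cmax, or 10 microM when Cmax is unknown.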

Molecules are shown by their SMILES. pIC50: −log10 of the molar value. “And” between values parts separate entries of the source, which are not always exact repeats. Identical values can stand only once.

On to `Cn1cnc2c(F)c(Nc3ccc(Br)cc3Cl)c(C(=O)NOCCO)cc21` + CC(C)NCC(C(=O)N1CCN(c2ncnc3c2C(C)CC3O)CC1)c1ccc(Cl)cc1, for which the pIC50 is, setting by setting: (curve of first compound, second compound 0.1 µM) under 5.52; (curve of first compound, second compound 0.316 µM) over 8.02; (curve of first compound, second compound 1 µM) over 8.02; (curve of first compound, second compound 3.16 µM) over 8.02; (curve of first compound, second compound 10 µM) over 8.02. The viability, T/C runs as follows: (second compound 0.1 µM, first compound 0.00949 µM) 83.2%; (second compound 0.1 µM, first compound 0.03 µM) 73.6%; (second compound 0.1 µM, first compound 0.0949 µM) 88.3%; (second compound 0.1 µM, first compound 0.3 µM) 78.9%; (second compound 0.1 µM, first compound 0.949 µM) 70%; (second compound 0.1 µM, first compound 3 µM) 55.6%. Moreover, the viability, T/C is, setting by setting: (second compound 0.316 µM, first compound 0.00949 µM) 46.5%; (second compound 0.316 µM, first compound 0.03 µM) 45%; (second compound 0.316 µM, first compound 0.0949 µM) 47.3%; (second compound 0.316 µM, first compound 0.3 µM) 44.5%; (second compound 0.316 µM, first compound 0.949 µM) 45%; (second compound 0.316 µM, first compound 3 µM) 37.1%. Also, the viability, T/C was 25.6% (second compound 1 µM, first compound 0.00949 µM); 27.1% (second compound 1 µM, first compound 0.03 µM); 24.1% (second compound 1 µM, first compound 0.0949 µM); 20.8% (second compound 1 µM, first compound 0.3 µM); 19.9% (second compound 1 µM, first compound 0.949 µM); 17.6% (second compound 1 µM, first compound 3 µM). Further, the viability, T/C (second compound 3.16 µM, first compound 0.00949 µM) is 8.45%; the viability, T/C (second compound 3.16 µM, first compound 0.03 µM) was 6.53%; the viability, T/C (second compound 3.16 µM, first compound 0.0949 µM) was 7.72%; the viability, T/C (second compound 3.16 µM, first compound 0.3 µM) is 7.02%; the viability, T/C (second compound 3.16 µM, first compound 0.949 µM) is 8%; the viability, T/C (second compound 3.16 µM, first compound 3 µM) was 6.09%. Besides, the viability, T/C (second compound 10 µM, first compound 0.00949 µM) is 12.9%; the viability, T/C (second compound 10 µM, first compound 0.03 µM) is 12.2%; the viability, T/C (second compound 10 µM, first compound 0.0949 µM) was 11.5%; the viability, T/C (second compound 10 µM, first compound 0.3 µM) was 12.1%; the viability, T/C (second compound 10 µM, first compound 0.949 µM) is 11.4%; the viability, T/C (second compound 10 µM, first compound 3 µM) was 10.7%.
Turning to `Cn1nccc1Nc1nccc(-c2ccn(C(CO)c3ccc(Cl)c(F)c3)c(=O)c2)n1` (configuration not stated), the viability, T/C runs as follows: (compound 0.0316 µM) 98.1% and 104%; (compound 0.1 µM) 99.6% and 97.7%; (compound 0.316 µM) 90.7% and 104%; (compound 1 µM) 119% and 109%; (compound 3.16 µM) 125% and 119%; (compound 10 µM) 41.7% and 92.9%. The pIC50 (curve of compound) was 5.06 and < 5.00.
